Assay results published in paper PMC11024869, “The activity of antimicrobial peptoids against multidrug-resistant ocular pathogens” (Contact lens & anterior eye : the journal of the British …, 2024).
No end group written: not given here.

Legend:
Proteinase K = Proteinase K (Parengyodontium album, UniProt P06873)
Procedure: (§1) Melimine was used as positive control as it is a cationic antimicrobial peptide that can be hydrolysed by proteases. The Expasy peptide cutter module (https://web.expasy.org/peptide_cutter/) was accessed to predict which proteases might digest melimine. The susceptibility of the antimicrobial compounds to digestion by two proteases expected to digest melimine, Proteinase K (120 unit mL^−1 in 20 mM Tris HCl, pH 7.4; New England Bio Labs, Australia) and Trypsin (10,350 BAFE units/mg in 50 mM borate buffer, pH 8.5; Thermo Scientific products, Australia), was tested. The peptoids and melimine were incubated with each protease at the ratio (w/w) of 1:100 in PBS (pH 7.4) for 24 h at 37 °C. After incubation, the peptoid/melimine + protease solutions were tested for their activity against P. aeruginosa 216 which was grown overnight in TSB at 37 °C. Bacterial cells were washed three times in PBS and then resuspended in MHB OD660nm of 0.1 (equal to 1x10^8 CFU mL^−1. The bacterial suspension was then diluted in MHB to a final working concentration of 5x10^6 cells mL^−1. The diluted bacterial suspension was subsequently added to the wells containing the peptoids/melimine + protease solution and incubated for 24 h at 37 °C. Peptoids/melimine solutions alone (no proteases) were used as a positive control, while protease solutions without the peptoids/melimine were used as a negative control. Post incubation, to inhibit the activity of the proteases, the bacterial suspensions were heated at 55 °C for 10 min in a water bath. After the heating step, the absorbance of the suspensions was measured at OD660nm.

Trypsin = molecular target: T1, Trypsin (Bos taurus, UniProt P00760)
T1 sequence (P00760 24-246): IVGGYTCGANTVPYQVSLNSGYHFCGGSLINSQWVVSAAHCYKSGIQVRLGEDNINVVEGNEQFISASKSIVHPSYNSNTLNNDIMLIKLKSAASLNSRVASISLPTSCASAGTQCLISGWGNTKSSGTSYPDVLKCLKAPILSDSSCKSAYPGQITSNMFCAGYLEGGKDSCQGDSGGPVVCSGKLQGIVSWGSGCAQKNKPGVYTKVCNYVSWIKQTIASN
Procedure: as §1

Escherichia coli = details: cited from earlier work
Procedure: (§2) Peptoids act similarly to AMPs as their cationic regions interact electrostatically with the anionic membranes of bacteria and may also facilitate the targeting of intracellular DNA and ribosomal agglutination. […] For example, peptoids can have minimum inhibitory concentrations as low as 1.8 μg mL^−1 against Bacillus subtilis and 12.4 μg mL^−1 against Escherichia coli, whereas these bacteria had MICs of 4.5 μg mL^−1 and 35.6 μg mL^−1, respectively, with the AMP melittin [31] Di-guanidine peptoids, produced via acid amine-coupling between nap ...

Bacillus subtilis = details: cited from earlier work
Procedure: as §2

[1] = incubated with protease at ratio (w/w) 1:100 in PBS pH 7.4, 24 h 37 °C, then P aeruginosa 216 in MHB 24 h 37 °C, OD660nm
[2] = result in words, 24 h 37 °C, P. aeruginosa 216

Chain of Proteinase K (P06873 106-384): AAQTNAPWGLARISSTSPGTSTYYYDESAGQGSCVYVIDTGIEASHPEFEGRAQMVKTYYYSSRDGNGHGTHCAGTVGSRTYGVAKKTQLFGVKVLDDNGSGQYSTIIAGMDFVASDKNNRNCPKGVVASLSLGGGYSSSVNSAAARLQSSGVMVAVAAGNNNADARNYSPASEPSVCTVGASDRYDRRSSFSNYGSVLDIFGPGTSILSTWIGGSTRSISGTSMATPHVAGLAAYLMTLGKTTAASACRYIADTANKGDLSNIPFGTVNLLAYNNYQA

TLISWIKNKRKQRPRVSRRRRRRGGRRRR [Melimine, reference compound]
MIC after Proteinase K (Proteinase K; [1]): >250 (66) μg mL^−1
antimicrobial activity after digestion with proteinase K (Proteinase K; [2]): lost all of its antimicrobial activity
MIC after Trypsin (Trypsin; [1]): >250 (66) μg mL^−1
antimicrobial activity after digestion with trypsin (Trypsin; [2]): lost all of its antimicrobial activity

melittin: the AMP melittin
MIC (Escherichia coli): 35.6 µg/mL
MIC (Bacillus subtilis): 4.5 µg/mL
